The experiment concerns the target T1, mu opiate receptor (MOR) (Rattus norvegicus, UniProt P33535).
T1 construct: from tissue; host or cells: striatum (membrane preparation)
The experiment in a line: MOR agonist activity using [35S]GTPgS binding assay in striatal membranes. In kind it is biochemical. The protocol: To assess the mu opiate receptor (MOR) agonist activity of positive compounds from the FLNA screening, compounds were tested in a [^35S]GTPgS binding assay using striatal membranes. […] This assay measures a functional consequence of receptor occupancy at one of the earliest receptor-mediated events. The assay permits for traditional pharmacological parameters of potency, efficacy and antagonist affinity, with the advantage that agonist measures are not subjected to amplification or other modulation that may occur when analyzing parameters further downstream of the receptor.
Thus, striatal tissue was homogenized in 10 volumes of ice cold 25 mM HEPES buffer, pH 7.4, which contained 1 mM EGTA, 100 mM sucrose, 50 mg/ml leupeptin, 0.04 mM PMSF, 2 mg/ml soybean trypsin inhibitor and 0.2% 2-mercaptoethanol. The homogenates were centrifuged at 800×g for 5 minutes and the supernatants were centrifuged at 49,000×g for 20 minutes. The resulting pellets were suspended in 10 volume of reaction buffer, which contained 25 mM HEPES, pH 7.5, 100 mM NaCl, 50 mg/ml leupeptin, 2 mg/ml soybean trypsin inhibitor, 0.04 mM PMSF and 0.02% […].
The resultant striatal membrane preparation (200 mg) was admixed and maintained (incubated) at 30° C. for 5 minutes in reaction buffer as above that additionally contained 1 mM MgCl2 and 0.5 nM [^35S]GTPgS (0.1 mCi/assay, PerkinElmer Life and Analytical Sciences) in a total volume of 250 ml and continued for 5 minutes in the absence or presence of 0.1-10 mM of an assayed compound of interest. The reaction was terminated by dilution with 750 ml of ice-cold reaction buffer that contained 20 mM MgCl2 and 1 mM EGTA and immediate centrifugation at 16,000×g for 5 minutes.
The resulting pellet was solubilized by sonicating for 10 seconds in 0.5 ml of immunoprecipitation buffer containing 0.5% digitonin, 0.2% sodium cholate and 0.5% NP-40. Normal rabbit serum (1 ml) was added to 1 ml of lysate and incubated at 25° C. for 30 minutes. Nonspecific immune complexes were removed by incubation with 25 ml of protein A/G-conjugated agarose beads at 25° C. for 30 minutes followed by centrifugation at 5,000×g at 4° C. for 5 minutes. The supernatant was divided and separately incubated at 25° C. for 30 minutes with antibodies raised against Gao proteins (1:1,000 dilutions).
The immunocomplexes so formed were collected by incubation at 25° C. for 30 minutes with 40 ml of agarose-conjugated protein A/G beads and centrifugation at 5,000×g at 4° C. for 5 minutes. The pellet was washed and suspended in buffer containing 50 mM Tris-HCl, pH 8.0, and 1% NP-40. The radioactivity in the suspension was determined by liquid scintillation spectrometry. […] DAMGO (1 or 10 mM) was used as a positive control.

Where [1] appears, read: 0.1 μM compound as agonist, Series C-2 table.
Where [2] appears, read: 1 μM compound as agonist, Series C-2 table.
The mark [3] stands for this setting: 0.1 μM compound as agonist, Series C-1 table.
[4] abbreviates: 1 μM compound as agonist, Series C-1 table.

T1 sequence (P33535 whole entry): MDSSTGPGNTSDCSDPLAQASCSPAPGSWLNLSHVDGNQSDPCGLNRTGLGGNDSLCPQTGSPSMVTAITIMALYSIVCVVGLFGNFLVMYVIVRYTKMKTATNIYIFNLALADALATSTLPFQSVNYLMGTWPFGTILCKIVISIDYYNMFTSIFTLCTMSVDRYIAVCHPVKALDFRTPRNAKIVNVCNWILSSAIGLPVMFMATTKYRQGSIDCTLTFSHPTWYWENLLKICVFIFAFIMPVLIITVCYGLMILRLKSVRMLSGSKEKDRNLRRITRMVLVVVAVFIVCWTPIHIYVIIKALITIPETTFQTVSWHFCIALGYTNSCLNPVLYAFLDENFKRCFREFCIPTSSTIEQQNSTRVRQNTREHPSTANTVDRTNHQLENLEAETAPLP

For the compound `CC(=O)c1ccc(S(=O)(=O)N2CCC3(CC2)NCCS3)cc1` [Compound C0060], the “MOR agonist activity ([35S]GTPgS binding to Gao)” value (shortened to “MOR agonist activity”) runs as follows: under setting [1], 166.5%; (1 μM + BFNA, Series C-2 table) 143.9%; under setting [2], 218.9%.

With `COc1cc(S(=O)(=O)N2CCC3(CC2)OCCN3S(=O)(=O)c2cc(OC)c(OC)c(OC)c2)cc(OC)c1OC` [Compound C0062], the “MOR agonist activity” value was found to be 127.8% under setting [3]; 59.8% (1 μM + BFNA, Series C-1 table); 310.5% under setting [4].

As to `CC(=O)c1ccc(S(=O)(=O)N2CCC3(CC2)NC(=O)CN3S(=O)(=O)c2ccc(C(C)=O)cc2)cc1` [Compound C0064], the “MOR agonist activity” value under setting [3] was 213.8%; the “MOR agonist activity” value (1 μM + BFNA, Series C-1 table) is 38.1%; the “MOR agonist activity” value under setting [4] worked out at 349.6%.

As for `CC(=O)c1ccc(S(=O)(=O)N2CCC3(CC2)OC(CN(C)C)CN3S(=O)(=O)c2ccc(C(C)=O)cc2)cc1` (stereo not drawn) [Compound C0065], the “MOR agonist activity” value by setting is: under setting [3], 198.3%; (1 μM + BFNA, Series C-1 table) 47.7%; under setting [4], 279.5%.

On to `O=S(=O)(c1ccc(Cl)cc1)N1CCC2(CC1)OCCN2S(=O)(=O)c1ccc(Cl)cc1` [Compound C0067], for which the “MOR agonist activity” value runs as follows: under setting [3], 142.7%; (1 μM + BFNA, Series C-1 table) 33.5%; under setting [4], 179.0%.

With `O=S(=O)(c1ccc(Br)cc1C(F)(F)F)N1CCC2(CC1)OCCN2S(=O)(=O)c1ccc(Br)cc1C(F)(F)F` [Compound C0068], the “MOR agonist activity” value under setting [3] is recorded as 107.2%; the “MOR agonist activity” value (1 μM + BFNA, Series C-1 table) was 165.9%; the “MOR agonist activity” value under setting [4] was determined as 263.1%.

Turning to `O=S(=O)(c1ccc(Br)cc1Br)N1CCC2(CC1)OCCN2S(=O)(=O)c1ccc(Br)cc1Br` [Compound C0070], the “MOR agonist activity” value turned out to be 165.6% under setting [3]; 114.2% (1 μM + BFNA, Series C-1 table); 210.8% under setting [4].

For `O=S(=O)(c1ccc(C(F)(F)F)cc1Br)N1CCC2(CC1)OCCN2S(=O)(=O)c1ccc(C(F)(F)F)cc1Br` [Compound C0071], the “MOR agonist activity” value stood at 276.3% under setting [3]; 177.1% (1 μM + BFNA, Series C-1 table); 355.3% under setting [4].

Regarding `O=S(=O)(c1ccc(F)c(F)c1)N1CCC2(CC1)OCCN2S(=O)(=O)c1ccc(F)c(F)c1` [Compound C0072], the “MOR agonist activity” value is, setting by setting: under setting [3], 172.7%; (1 μM + BFNA, Series C-1 table) 67.1%; under setting [4], 259.1%.

Regarding `O=S(=O)(c1ccc(Br)c(C(F)(F)F)c1)N1CCC2(CC1)OCCN2S(=O)(=O)c1ccc(Br)c(C(F)(F)F)c1` [Compound C0077], the “MOR agonist activity” value by setting is: under setting [3], 192.7%; (1 μM + BFNA, Series C-1 table) 136.7%; under setting [4], 265.4%.

Take `O=S(=O)(c1ccc(Br)cc1F)N1CCC2(CC1)OCCN2S(=O)(=O)c1ccc(Br)cc1F` [Compound C0078]: the “MOR agonist activity” value reads like this: under setting [3], 138.1%; (1 μM + BFNA, Series C-1 table) 170.7%; under setting [4], 236.6%.

With `CC(=O)c1ccc(S(=O)(=O)N2CCC3(CC2)OCC(CCCCN(C)C)N3S(=O)(=O)c2ccc(C(C)=O)cc2)cc1` (stereo not drawn) [Compound C0080], the “MOR agonist activity” value under setting [3] amounted to 187.9%; the “MOR agonist activity” value (1 μM + BFNA, Series C-1 table) was 167.1%; the “MOR agonist activity” value under setting [4] is given as 205.4%.

Regarding `CC(=O)c1ccc(S(=O)(=O)N2CCC3(CC2)NCC(=O)N3Cc2ccccc2)cc1` [Compound C0082M], the “MOR agonist activity” value is listed as 228.1% under setting [3]; 97.6% (1 μM + BFNA, Series C-1 table); 338.4% under setting [4].

As for `CC(=O)c1ccc(S(=O)(=O)N2CCC3(CC2)NC(=O)C(Cc2cnc[nH]2)N3S(=O)(=O)c2ccc(C(C)=O)cc2)cc1` (stereo not drawn) [Compound C0084M], the “MOR agonist activity” value is on record as 163.1% under setting [3]; 133.2% (1 μM + BFNA, Series C-1 table); 255.5% under setting [4].

For `CC(=O)c1ccc(S(=O)(=O)N2CCC3(CC2)NC(=O)CN3Cc2ccccc2)cc1` [Compound C0085M], the “MOR agonist activity” value was found to be 211.6% under setting [3]; 43.7% (1 μM + BFNA, Series C-1 table); 246.2% under setting [4].

With `CC(=O)c1ccc(S(=O)(=O)N2CC(=O)NC23CCNCC3)cc1` [Compound C0086M], the “MOR agonist activity” value is reported as 206.8% under setting [1]; 152.3% (1 μM + BFNA, Series C-2 table); 265.3% under setting [2].

Regarding `CC(=O)c1ccc(S(=O)(=O)N2CCC3(CC2)NC(=O)CO3)cc1` [Compound C0087M], the “MOR agonist activity” value is, setting by setting: under setting [1], 262.8%; (1 μM + BFNA, Series C-2 table) 142.5%; under setting [2], 329.6%.

As to `COc1ccc(S(=O)(=O)N2CCOC23CCN(C)CC3)cc1` [Compound C0088M], the “MOR agonist activity” value runs as follows: under setting [1], 276.3%; (1 μM + BFNA, Series C-2 table) 177.1%; under setting [2], 355.3%.

As for `CCN1CCC2(CC1)OCCN2S(=O)(=O)c1ccc(OC)cc1` [Compound C0089M], the “MOR agonist activity” value under setting [1] turned out to be 234.5%; the “MOR agonist activity” value (1 μM + BFNA, Series C-2 table) is 81.9%; the “MOR agonist activity” value under setting [2] worked out at 295.3%.

On to `COc1ccc(S(=O)(=O)N2CCOC23CCN(CC2CC2)CC3)cc1` [Compound C0090M], for which the “MOR agonist activity” value reads like this: under setting [1], 237.0%; (1 μM + BFNA, Series C-2 table) 41.0%; under setting [2], 341.0%.

In the case of `C=CCN1CCC2(CC1)OCCN2S(=O)(=O)c1ccc(OC)cc1` [Compound C0091M], the “MOR agonist activity” value stood at 207.9% under setting [1]; 80.8% (1 μM + BFNA, Series C-2 table); 274.4% under setting [2].

As for `CC(=O)c1ccc(S(=O)(=O)N2CCOC23CCN(C)CC3)cc1` [Compound C0093M], the “MOR agonist activity” value worked out at 140.0% under setting [1]; 44.0% (1 μM + BFNA, Series C-2 table); 211.8% under setting [2].

As for `CCN1CCC2(CC1)OCCN2S(=O)(=O)c1ccc(C(C)=O)cc1` [Compound C0094M], the “MOR agonist activity” value is, setting by setting: under setting [1], 172.5%; (1 μM + BFNA, Series C-2 table) 115.3%; under setting [2], 263.5%.

In the case of `CC(=O)c1ccc(S(=O)(=O)N2CCOC23CCN(CC2CC2)CC3)cc1` [Compound C0095M], the “MOR agonist activity” value is recorded as 189.1% under setting [1]; 107.7% (1 μM + BFNA, Series C-2 table); 224.6% under setting [2].

Regarding `C=CCN1CCC2(CC1)OCCN2S(=O)(=O)c1ccc(C(C)=O)cc1` [Compound C0096M], the “MOR agonist activity” value reads like this: under setting [1], 186.4%; (1 μM + BFNA, Series C-2 table) 127.1%; under setting [2], 328.9%.

With `CCOC(=O)CN1CCC2(CC1)OCCN2S(=O)(=O)c1ccc(C(C)=O)cc1` [Compound C0099M], the “MOR agonist activity” value is recorded as 157.2% under setting [1]; 114.7% (1 μM + BFNA, Series C-2 table); 195.7% under setting [2].

`CC(=O)c1ccc(S(=O)(=O)N2CCOC23CCN(CC(=O)O)CC3)cc1` [Compound C0100M]: the “MOR agonist activity” value reads like this: under setting [1], 173.6%; (1 μM + BFNA, Series C-2 table) 195.6%; under setting [2], 245.9%.

These data come from US20220233512A1, “INHIBITING AN IMMUNE RESPONSE MEDIATED BY ONE OR MORE OF TLR2, RAGE, CCR5, CXCR4 AND CD4” (priority 2020, published 2022).
